Source: patent publication US10294202B2, “Pyrrolidinones as herbicides” (FMC Corporation, priority 2013, dated 2019)

What was measured:
barnyardgrass [1] = experiment: Test C pre-/postemergence herbicide test; type: in vivo, Echinochloa crus-galli
Outline: (§1)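 Pre- and postemergence greenhouse screen. Preemergence treatment went onto freshly planted seeds in loam–sand soil; postemergence treatment went onto plants 2 to 18 cm tall at the 1- to 4-leaf stage in sphagnum peat/vermiculite medium. Scoring at 13 to 15 days used a 0–100 control scale.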

morningglory = experiment: Test C pre-/postemergence herbicide test; type: in vivo, Ipomoea coccinea
Outline: as §1

wheat (winter wheat) = experiment: Test C pre-/postemergence herbicide test; type: in vivo, Triticum aestivum; conditions: for Plant response rating, Wheat: Postemergence
Outline: as §1

pigweed = experiment: Test C pre-/postemergence herbicide test; type: in vivo, Amaranthus retroflexus
Outline: as §1

sedge, umbrella = experiment: Test B flooded paddy test; type: in vivo, Cyperus difformis; conditions: 500 g ai/ha, Flood; scale of 0 to 100 where 0 is no effect and 100 is complete control
Outline: (§2)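 In-water application to pots flooded 3 cm deep, plants at 2-leaf stage. Held in greenhouse 13–15 days at constant flood depth. Scored 0–100 by eye against controls.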

ragweed = experiment: Test C pre-/postemergence herbicide test; type: in vivo, Ambrosia elatior
Outline: as §1

soybean = experiment: Test C pre-/postemergence herbicide test; type: in vivo, Glycine max
Outline: as §1

corn = experiment: Test C pre-/postemergence herbicide test; type: in vivo, Zea mays
Outline: as §1

barnyardgrass [2] = experiment: Test B flooded paddy test; type: in vivo, Echinochloa crus-galli; conditions: 500 g ai/ha, Flood; scale of 0 to 100 where 0 is no effect and 100 is complete control
Outline: as §2

lambsquarters = experiment: Test C pre-/postemergence herbicide test; type: in vivo, Chenopodium album
Outline: as §1

ryegrass, Italian = experiment: Test C pre-/postemergence herbicide test; type: in vivo, Lolium multiflorum
Outline: as §1

oat, wild = experiment: Test C pre-/postemergence herbicide test; type: in vivo, Avena fatua; conditions: Postemergence
Outline: as §1

waterhemp = experiment: Test C pre-/postemergence herbicide test; type: in vivo, Amaranthus rudis
Outline: as §1

ducksalad = experiment: Test B flooded paddy test; type: in vivo, Heteranthera limosa; conditions: 500 g ai/ha, Flood; scale of 0 to 100 where 0 is no effect and 100 is complete control
Outline: as §2

galium = experiment: Test C pre-/postemergence herbicide test; type: in vivo, Galium aparine
Outline: as §1

[3] = Postemergence, 31 g ai/ha, scale 0 to 100 (0 no effect, 100 complete control)
[4] = Postemergence, 62 g ai/ha, scale 0 (no effect) to 100 (complete control)
[5] = Postemergence, 125 g ai/ha, scale 0 to 100 (0 no effect, 100 complete control)
[6] = Postemergence, 250 g ai/ha, scale 0 to 100 (0 no effect, 100 complete control)
[7] = Preemergence, 31 g ai/ha, scale 0 to 100, 0 is no effect and 100 is complete control
[8] = Preemergence, 62 g ai/ha, scale 0 to 100 (0 no effect, 100 complete control)
[9] = Preemergence, 125 g ai/ha, scale 0 to 100 (0 no effect, 100 complete control)
[10] = 31 g ai/ha, scale 0 to 100 (0 no effect, 100 complete control)
[11] = 62 g ai/ha, scale 0 (no effect) to 100 (complete control)
[12] = 125 g ai/ha, scale 0 to 100 (0 no effect, 100 complete control)
[13] = 250 g ai/ha, scale 0 to 100 (0 no effect, 100 complete control)

In the case of `O=C1NCC(c2cc(F)cc(F)c2)C1C(=O)Nc1cccc(F)c1F` (racemic) [Compound 279], the “Plant response rating, Barnyardgrass” value (barnyardgrass [1]; [3]) is reported as 15, the “Plant response rating, Barnyardgrass” value (barnyardgrass [1]; [4]) is reported as 55 and the “Plant response rating, Barnyardgrass” value (barnyardgrass [1]; [5]) is reported as 85. The “Plant response rating, Barnyardgrass” value (barnyardgrass [1]; [6]) was 85, the “Barnyardgrass plant response rating” value (barnyardgrass [1]; [7]) was 80 and the “Barnyardgrass plant response rating” value (barnyardgrass [1]; [8]) was 95. The “Plant response rating, Barnyardgrass” value (barnyardgrass [1]; [9]) was 95, the “Plant response rating (scale of 0 to 100; 0 is no effect, 100 is complete control), Barnyardgrass” value (barnyardgrass [1]; Preemergence, 250 g ai/ha) was 98 and the “Plant response rating, Morningglory” value (morningglory; [3]) was 5. The “Plant response rating, Morningglory” value (morningglory; [4]) was 60, the “Plant response rating, Morningglory” value (morningglory; [5]) was 30 and the “Plant response rating, Morningglory” value (morningglory; [6]) was 25. The “Morningglory plant response rating” value (morningglory; [7]) was 0, the “Morningglory plant response rating” value (morningglory; [8]) was 0 and the “Plant response rating, Morningglory” value (morningglory; [9]) was 10. For the same compound, the “Plant response rating (scale of 0 to 100), Morningglory” value (morningglory; Preemergence, 250 g ai/ha) was 10, the “Plant response rating, Wheat” value (wheat (winter wheat); [10]) was 0 and the “Plant response rating, Wheat” value (wheat (winter wheat); [11]) was 0. For the same compound, the “Plant response rating, Wheat” value (wheat (winter wheat); [12]) was 0, the “Plant response rating, Wheat” value (wheat (winter wheat); [13]) was 0 and the “Wheat plant response rating” value (wheat (winter wheat); [7]) was 0. The “Wheat plant response rating” value (wheat (winter wheat); [8]) was 15, the “Plant response rating (scale of 0 to 100), Wheat” value (wheat (winter wheat); Preemergence, 250 g ai/ha) was 30 and the “Plant response rating, Pigweed” value (pigweed; [3]) was 30. The “Plant response rating, Pigweed” value (pigweed; [4]) was 10, the “Plant response rating, Pigweed” value (pigweed; [5]) was 30 and the “Plant response rating, Pigweed” value (pigweed; [6]) was 20. The “Pigweed plant response rating” value (pigweed; [7]) was 0, the “Pigweed plant response rating” value (pigweed; [8]) was 5 and the “Plant response rating, Pigweed” value (pigweed; [9]) was 0. For the same compound, the “Plant response rating (scale of 0 to 100), Pigweed” value (pigweed; Preemergence, 250 g ai/ha) was 75, the “Plant response rating, Sedge, Umbrella” value (sedge, umbrella) was 0 and the “Plant response rating, Ragweed” value (ragweed; [3]) was 15. For the same compound, the “Plant response rating, Ragweed” value (ragweed; [4]) was 20, the “Plant response rating, Ragweed” value (ragweed; [5]) was 35 and the “Plant response rating, Ragweed” value (ragweed; [6]) was 35. The “Ragweed plant response rating” value (ragweed; [7]) was 0, the “Ragweed plant response rating” value (ragweed; [8]) was 0 and the “Plant response rating, Ragweed” value (ragweed; [9]) was 10. For the same compound, the “Plant response rating (scale of 0 to 100), Ragweed” value (ragweed; Preemergence, 250 g ai/ha) was 65, the “Plant response rating, Soybean” value (soybean; [3]) was 40 and the “Plant response rating, Soybean” value (soybean; [4]) was 10. The “Plant response rating, Soybean” value (soybean; [5]) was 0, the “Plant response rating, Soybean” value (soybean; [6]) was 10 and the “Soybean plant response rating” value (soybean; [7]) was 0. For the same compound, the “Soybean plant response rating” value (soybean; [8]) was 0, the “Plant response rating, Soybean” value (soybean; [9]) was 0 and the “Plant response rating (scale of 0 to 100), Soybean” value (soybean; Preemergence, 250 g ai/ha) was 10. For the same compound, the “Plant response rating, Corn” value (corn; [3]) was 0, the “Plant response rating, Corn” value (corn; [4]) was 0 and the “Plant response rating, Corn” value (corn; [5]) was 0. For the same compound, the “Plant response rating, Corn” value (corn; [6]) was 0, the “Corn plant response rating” value (corn; [7]) was 0 and the “Corn plant response rating” value (corn; [8]) was 0. The “Plant response rating, Corn” value (corn; [9]) was 5, the “Plant response rating (scale of 0 to 100), Corn” value (corn; Preemergence, 250 g ai/ha) was 65 and the “Plant response rating, Barnyardgrass” value (barnyardgrass [2]) was 75. For the same compound, the “Plant response rating, Lambsquarters” value (lambsquarters; [3]) was 0, the “Plant response rating, Lambsquarters” value (lambsquarters; [4]) was 0 and the “Plant response rating, Lambsquarters” value (lambsquarters; [5]) was 45. For the same compound, the “Plant response rating, Lambsquarters” value (lambsquarters; [6]) was 45, the “Lambsquarters plant response rating” value (lambsquarters; [7]) was 0 and the “Lambsquarters plant response rating” value (lambsquarters; [8]) was 0. For the same compound, the “Plant response rating, Lambsquarters” value (lambsquarters; [9]) was 65, the “Plant response rating (scale of 0 to 100), Lambsquarters” value (lambsquarters; Preemergence, 250 g ai/ha) was 90 and the “Plant response rating, Ryegrass, Italian” value (ryegrass, Italian; [3]) was 0. For the same compound, the “Plant response rating, Ryegrass, Italian” value (ryegrass, Italian; [4]) was 0, the “Plant response rating, Ryegrass, Italian” value (ryegrass, Italian; [5]) was 0 and the “Plant response rating, Ryegrass, Italian” value (ryegrass, Italian; [6]) was 0. For the same compound, the “Ryegrass, Italian plant response rating” value (ryegrass, Italian; [7]) was 0, the “Ryegrass, Italian plant response rating” value (ryegrass, Italian; [8]) was 10 and the “Plant response rating, Ryegrass, Italian” value (ryegrass, Italian; [9]) was 30. The “Plant response rating (scale of 0 to 100), Ryegrass, Italian” value (ryegrass, Italian; Preemergence, 250 g ai/ha) was 60, the “Plant response rating, Oat, Wild” value (oat, wild; [10]) was 0 and the “Plant response rating, Oat, Wild” value (oat, wild; [11]) was 0. The “Plant response rating, Oat, Wild” value (oat, wild; [12]) was 0, the “Plant response rating, Oat, Wild” value (oat, wild; [13]) was 0 and the “Plant response rating, Waterhemp” value (waterhemp; [3]) was 5. For the same compound, the “Plant response rating, Waterhemp” value (waterhemp; [4]) was 20, the “Plant response rating, Waterhemp” value (waterhemp; [5]) was 15 and the “Plant response rating, Waterhemp” value (waterhemp; [6]) was 15. For the same compound, the “Waterhemp plant response rating” value (waterhemp; [7]) was 0, the “Waterhemp plant response rating” value (waterhemp; [8]) was 15 and the “Plant response rating, Waterhemp” value (waterhemp; [9]) was 55. For the same compound, the “Plant response rating (scale of 0 to 100), Waterhemp” value (waterhemp; Preemergence, 250 g ai/ha) was 80, the “Plant response rating, Ducksalad” value (ducksalad) was 100 and the “Plant response rating, Galium” value (galium; [3]) was 0. The “Plant response rating, Galium” value (galium; [4]) was 15, the “Plant response rating, Galium” value (galium; [5]) was 30 and the “Plant response rating, Galium” value (galium; [6]) was 30. For the same compound, the “Galium plant response rating” value (galium; [7]) was 0, the “Galium plant response rating” value (galium; [8]) was 0 and the “Plant response rating, Galium” value (galium; [9]) was 85. For the same compound, the “Plant response rating (scale of 0 to 100), Galium” value (galium; Preemergence, 250 g ai/ha) was 85.
